The source of these data is US10071112B2, “Vitamin E-nucleoside prodrugs” (EPIGENETICS PHARMA LLC, priority 2014, dated 2018).

Counter-ions that a name gives are not always drawn. Like-named read-outs stand apart in the source and are kept apart here.

For series [1] the following is noted: blank human plasma matrix, room temperature, at least 4 hours; cited from earlier work.
The next series deals with NCI-H460. As to the kind of experiment: In vitro cytotoxicity / growth inhibition, SRB assay, 72 hr, non-small cell lung cancer cells. The format is cell-based. Particulars: for IC50: Table 2; for GI50: 72 hr. The method, then:
(§1) In general, growth inhibitory effects of gemcitabine and prodrugs were evaluated in breast (MDA), lung (H460) and colon (H116) cancer cell lines by seeding the cell lines in 96-wells plates and exposing the cells to various drug concentrations for 72 hr. Standard sulforhodamine B (SRB) assay was then performed.
In general terms: In SRB staining, fixed cells bind dye roughly in proportion to their protein.

In a further series the test system is HCT-116. Nature of the series: In vitro cytotoxicity / growth inhibition, SRB assay, 72 hr, colon cancer cells. The class given is cell-based. Particulars: for IC50: Table 2, HCT-116; for GI50: 72 hr. The method, then: as §1
In another series the test system is MDA-MB-231. As to the kind of experiment: In vitro cytotoxicity / growth inhibition, SRB assay, 72 hr, breast cancer cells. Particulars: for IC50: Table 2; for GI50: 72 hr. The format is cell-based. The method, then:
as §1

Series [2] in a line: Intrinsic clearance / metabolic stability in liver microsomes. The class given is in vitro ADME. Particulars: human liver microsomes. The protocol:
Metabolic stability, expressed as percent of the parent compound remaining, was calculated by comparing the peak area of the compound at the time point relative to that at time-0. The half-life (T1/2) was estimated from the slope of the initial linear range of the logarithmic curve of compound remaining (%) vs. time, assuming the first-order kinetics. The apparent intrinsic clearance (CLint, in μL/min/pmol, μL/min/mg or μL/min/Mcell) was calculated according to the following formula: CLint=[…](mg protein/μL or million cells/μL or pmol CYP isozyme/μL)

Series [3] is described as follows: Aqueous solubility determination. The format is physicochemical. An excerpt: In addition, chromatographic purity (%) was defined as the peak area of the principal peak relative to the total integrated peak area in the HPLC chromatogram of the calibration standard. A chromatogram of the calibration standard of each test compound, along with a UV/VIS spectrum with labeled absorbance maxima, was generated.

The test system of a further series is CEM WT. Nature of the series: Activity in wild type leukemic CEM cells. The following applies: for IC50: Homo sapiens, CCRF-CEM, CEM WT (dCK wild type) cells. The class given is cell-based. The method, then: (§2) To further confirm that tocopherol/tocotrienol-modified drugs are imported as intact molecules and then dissociate intracellularly into monophosphorylated nucleoside and carrier, i.e., tocopherol/tocotrienol, Compound 2 was tested for activity against gemcitabine in wild type (WT) leukemic CEM cells and CEM cells without deoxycytidine kinase (dCK). In the absence of dCK, gemcitabine is not phosphorylated to gemcitabine monophosphate a precursor to the therapeutically active di- and triphosphates.

A further series relates to CEM dCK(—). As to the kind of experiment: Activity in CEM cells without deoxycytidine kinase. The following applies: for increase of IC50 from dCK WT cells to dCK (−) cells: CEM dCK(−) vs CEM WT; for IC50: Homo sapiens, CCRF-CEM, CEM dCK(—) cells. The format is cell-based. The method, then: as §2
For a further series, the system named is pancreatic cancer. The following applies: clinical trials, patients with pancreatic cancer; cited from earlier work.
Where [4] appears, read: Homo sapiens, NCI-H460, absence of dipyridamole (control), read-out: GI50 SRB, H460 Lung.
[5] abbreviates: Homo sapiens, NCI-H460, presence of 1 μM dipyridamole, read-out: GI50 SRB, H460 Lung, dipyridamole.
The mark [6] stands for this setting: Homo sapiens, absence of dipyridamole (control), read-out: GI50 SRB, H116 Colon.
Where [7] appears, read: Homo sapiens, presence of 1 μM dipyridamole, read-out: GI50 SRB, H116 Colon, dipyridamole.
[8] abbreviates: Homo sapiens, MDA-MB-231, absence of dipyridamole (control), read-out: GI50 SRB, MDA Breast.
Setting [9] is: Homo sapiens, MDA-MB-231, presence of 1 μM dipyridamole, read-out: GI50 SRB, MDA Breast, dipyridamole.

Consider `CCCCCCCC/C=C/CCCCCCCC(=O)OC[C@H]1O[C@@H](n2cnc(N)nc2=O)[C@H](O)[C@@H]1O` [5-azacytidine elaidic acid ester], for which, in series [1], the “percent of the initial amount remaining” value is 94%.

Consider `Cc1c(C)c2c(c(C)c1OP(=O)(O)OC[C@H]1O[C@@H](n3ccc(N)nc3=O)C(F)(F)[C@@H]1O)CC[C@@](C)(CCC[C@H](C)CCC[C@H](C)CCCC(C)C)O2` [Compound 1, D-α-tocopheryl phosphate-5′-gemcitabine, triethylammonium salt], for which the IC50 (in general, the point on the concentration scale where inhibition reaches its midpoint) in the series with NCI-H460 (Homo sapiens, NCI-H460) was found to be 23.8 µM; with HCT-116 (Homo sapiens) it was 26.1 µM; in the series on MDA-MB-231 (Homo sapiens, MDA-MB-231) it was 22.7 µM.

As for `Cc1cc(OP(=O)(O)OC[C@H]2O[C@@H](n3ccc(N)nc3=O)C(F)(F)C2O)cc2c1O[C@](C)(CCC[C@H](C)CCC[C@H](C)CCCC(C)C)CC2` (stereo partly drawn) [Compound 2, D-δ-tocopheryl phosphate-5′-gemcitabine, triethylammonium salt], the GI50 (as a rule, the concentration that inhibits growth by half) in the series on NCI-H460 (setting [4]) is 2.14 µM; in the series with NCI-H460 (setting [5]), 1.47 µM; in the series with HCT-116 (setting [6]), 3.07 µM; in the series with HCT-116 (setting [7]), 6.74 µM; in the series on MDA-MB-231 (setting [8]) it was 17.2 µM; with MDA-MB-231 (setting [9]), 23.3 µM. For the same compound, the IC50 in the series on NCI-H460 (Homo sapiens, NCI-H460) worked out at 1.69 µM; in the series with HCT-116 (Homo sapiens) it was 3.67 µM; with CEM WT, 0.59 µM; with CEM dCK(—) it was 19.2 µM; in the series with MDA-MB-231 (Homo sapiens, MDA-MB-231), 5.08 µM. The intrinsic clearance half-life result in series [2] is on record as “greater than 60 minutes”. Also, the solubility (in general, how much of the substance goes into solution per volume) was greater than 10000 µg/mL in series [3] (PBS buffer, aqueous buffer, PBS (pH 7.4), read-out: aqueous solubility in PBS) and greater than 200 µM in [3] (simulated intestinal fluid, fassgf or other biorelevant, read-out: aqueous solubility in simulated intestinal fluid). Also, the “increase of IC50 from dCK WT cells to dCK (−) cells” value with CEM dCK(—) was found to be 32.5 fold. Also, the “fold by which IC50 of Compound 2 was lower than gemcitabine” value in the series on CEM dCK(—) (dCK (−) cells) was determined as 6.5 fold.

On to `CC(C)=CCC/C(C)=C/CC/C(C)=C/CCC1(C)CCc2cc(OP(=O)(O)OC[C@H]3O[C@@H](n4ccc(N)nc4=O)C(F)(F)[C@@H]3O)c(C)c(C)c2O1` (stereo partly drawn) [Compound 3, D-γ-tocotrienyl phosphate-5′-gemcitabine, triethylammonium salt], for which the IC50 in the series with NCI-H460 (NCI-H460) came to 4.75 µM; in the series on HCT-116, 4.01 µM; with MDA-MB-231 (MDA-MB-231), 4.9 µM. Also, the GI50 in the series with NCI-H460 (absence of dipyridamole (control), read-out: GI50 SRB, H460 Lung) is 7.16 µM; in the series with NCI-H460 (presence of 1 μM dipyridamole, read-out: GI50 SRB, H460 Lung, dipyridamole), 16 µM; in the series on HCT-116 (absence of dipyridamole (control), read-out: GI50 SRB, H116 Colon), 5.55 µM; with HCT-116 (presence of 1 μM dipyridamole, read-out: GI50 SRB, H116 Colon, dipyridamole), 12.6 µM; with MDA-MB-231 (absence of dipyridamole (control), read-out: GI50 SRB, MDA Breast) it was 30.3 µM; in the series on MDA-MB-231 (presence of 1 μM dipyridamole, read-out: GI50 SRB, MDA Breast, dipyridamole) it was 27.8 µM.

For the compound `Nc1ccn([C@@H]2O[C@H](CO)[C@@H](O)C2(F)F)c(=O)n1` [Gemcitabine, reference compound], the 50% growth inhibitory concentration (GI50) is 0.02 µM in the series on NCI-H460 (setting [4]); 0.82 µM in the series with NCI-H460 (setting [5]); 0.03 µM in the series with HCT-116 (setting [6]); 2.39 µM with HCT-116 (setting [7]); 3.08 µM with MDA-MB-231 (setting [8]); 56.8 µM in the series on MDA-MB-231 (setting [9]). The IC50 with NCI-H460 (Homo sapiens, NCI-H460) is 0.02 µM; in the series on HCT-116 (Homo sapiens), 0.01 µM; with CEM WT, 0.002 µM; in the series with CEM dCK(—) it was 124 µM; with MDA-MB-231 (Homo sapiens, MDA-MB-231), 0.11 µM. The “fold by which IC50 of gemcitabine was lower than Compound 2” value in the series on CEM WT (dCK WT cells) turned out to be 295 fold. Also, the “increase of IC50 from dCK WT cells to dCK (−) cells” value with CEM dCK(—) is reported as 62,250 fold.

Consider `CCCCCCCC/C=C/CCCCCCCC(=O)OC[C@H]1O[C@@H](n2ccc(N)nc2=O)C(F)(F)[C@@H]1O` [elaidic acid prodrug], for which, in the series on pancreatic cancer, the survival versus gemcitabine entry is “did not show any difference in survival”.

Regarding `CC(C)=CCC/C(C)=C/CC/C(C)=C/CCC1(C)CCc2cc(OP(=O)(O)O)c(C)c(C)c2O1` (stereo not shown) [γ-tocotrienyl phosphate, reference compound], the IC50 with NCI-H460 (NCI-H460) is 69.1 µM; in the series with HCT-116 it was 55.7 µM; with MDA-MB-231 (MDA-MB-231), 26.4 µM.

Take “α-tocopheryl phosphate [reference compound]”: the IC50 with NCI-H460 (NCI-H460) came to 52.2 µM; in the series on HCT-116, 46.9 µM; in the series on MDA-MB-231 (MDA-MB-231), 23.4 µM.

As for “δ-tocopheryl phosphate [reference compound]”, the half-maximal inhibitory concentration (IC50) with NCI-H460 (NCI-H460) turned out to be 69.7 µM; in the series on HCT-116, 70.6 µM; in the series on MDA-MB-231 (MDA-MB-231) it was 29.6 µM.
